18 compounds from patent US12421211B2, “Heterocyclic compounds” (Hoffmann-La Roche Inc., priority 2021, dated 2025) can be followed below.

Counter-ions that a name gives are not always drawn.

One test deals with Acinetobacter baumannii ATCC17961. The test is described as follows: Antimicrobial susceptibility testing: 90% growth inhibitory concentration (IC90) determination. The test is classed as cell-based. The settings on record: 90% growth inhibitory concentration, Acinetobacter baumannii ATCC17961, Iso-Sensitest broth, OD 600 nm over 16 h; read-out: ATCC 17961 IC90. The method in brief:
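A. baumannii ATCC17961 at ~5×10^5 CFU/ml in Iso-Sensitest broth exposed to 10-point twofold dilutions (e.g. 50–0.097 μM final), 35±2° C. OD600 read every 20 minutes over 16h; IC50 and IC90 derived from inhibition during logarithmic growth.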
In general, IC90 refers to the concentration needed for an effect of 90%. In the case of `COCCn1cc(-c2ccc(-c3cnc(C(=O)Nc4ccc(C(=O)N5CCN(C(=O)C6[C@H]7C[N+](C)(C)C[C@@H]67)CC5)c(Cl)c4)n3C)c(F)c2F)c(C)n1` (stereo partly drawn) [Example B25, N-[3-chloro-4-[4-[(1R,5S)-3,3-dimethyl-3-azoniabicyclo[3.10]hexane-6-carbonyl]piperazine-1-carbonyl]phenyl]-5-[2,3-difluoro-4-[1-(2-methoxyethyl)-3-methyl-pyrazol-4-yl]phenyl]-1-methyl-imidazole-2-carboxamide; formate], the concentration for an effect of 90% (IC90) stood at 270 nM.

The test is the same for the next values; noted with them: Acinetobacter baumannii, ATCC17961, 16 h, 90% growth inhibitory concentration, Acinetobacter baumannii ATCC17961, Iso-Sensitest broth, OD 600 nm over 16 h; read-out: ATCC 17961 IC90.
Consider `COCCn1ncc(-c2ccc(-c3cnc(C(=O)Nc4ccc(C(=O)NCC5CCNCC5)c(Cl)c4)n3C)c(F)c2F)c1C` [Example E10, N-[3-chloro-4-(4-piperidylmethyl-carbamoyl)phenyl]-5-[2,3-difluoro-4-[1-(2-methoxyethyl)-5-methyl-pyrazol-4-yl]phenyl]-1-methyl-imidazole-2-carboxamide; 2,2,2-trifluoroacetic acid], for which the concentration for an effect of 90% (IC90) came out at 170 nM.
For the compound `Cc1nn(CC(=O)NC2CCCCC2)cc1-c1ccc(-c2cnc(C(=O)Nc3ccc(C(=O)N4CCN(C(=O)C5CC[N+](C)(C)CC5)CC4)c(Cl)c3)n2C)c(F)c1F` [Example G9, N-[3-chloro-4-[4-(1,1-dimethylpiperidin-1-ium-4-carbonyl)piperazine-1-carbonyl]phenyl]-5-[4-[1-[2-(cyclohexylamino)-2-oxo-ethyl]-3-methyl-pyrazol-4-yl]-2,3-difluoro-phenyl]-1-methyl-imidazole-2-carboxamide; formate], the IC90 is 210 nM.
On the same count and under the same terms, with `COCCn1cc(-c2ccc(-c3cnc(C(=O)Nc4ccc(C(=O)N5CCN(C(=O)[C@H]6C[C@@H](O)C[N+]6(C)C)CC5)c(Cl)c4)n3C)c(F)c2F)c(C)n1` [Example D9, N-[3-chloro-4-[4-[(2R,4R)-4-hydroxy-1,1-dimethyl-pyrrolidin-1-ium-2-carbonyl]piperazine-1-carbonyl]phenyl]-5-[2,3-difluoro-4-[1-(2-methoxyethyl)-3-methyl-pyrazol-4-yl]phenyl]-1-methyl-imidazole-2-carboxamide; formate] the figure was 300 nM; with `COCCn1ncc(-c2ccc(-c3cnc(C(=O)Nc4ccc(C(=O)N5CCN(C(=O)CN(C)C)CC5)c(C)c4)n3C)cc2)c1C` [Example E14, N-[4-[4-[2-(dimethylamino)acetyl]piperazine-1-carbonyl]-3-methyl-phenyl]-5-[4-[1-(2-methoxyethyl)-5-methyl-pyrazol-4-yl]phenyl]-1-methyl-imidazole-2-carboxamide], 270 nM; with `COCCn1ncc(-c2ccc(-c3cnc(C(=O)Nc4ccc(C(=O)N5CCN(C(=O)C6CC[N+](CC(=O)O)(CC7CNC7)CC6)CC5)c(Cl)c4)n3C)c(F)c2Cl)c1C` (stereo not drawn) [Example B28, 2-[1-(azetidin-3-ylmethyl)-4-[4-[2-chloro-4-[[5-[3-chloro-2-fluoro-4-[1-(2-methoxyethyl)-5-methyl-pyrazol-4-yl]phenyl]-1-methyl-imidazole-2-carbonyl]amino]benzoyl]piperazine-1-carbonyl]piperidin-1-ium-1-yl]acetic acid; formate], 230 nM.
Still for that read-out and setting: for `COCCn1ncc(-c2ccc(-c3cnc(C(=O)Nc4ccc(C(=O)NCC5CCN(C(=O)CN(C)C)CC5)c(Cl)c4)n3C)c(F)c2F)c1C` [Example D33, N-[3-chloro-4-[[1-[2-(dimethylamino)acetyl]-4-piperidyl]methylcarbamoyl]phenyl]-5-[2,3-difluoro-4-[1-(2-methoxyethyl)-5-methyl-pyrazol-4-yl]phenyl]-1-methyl-imidazole-2-carboxamide; 2,2,2-trifluoroacetic acid] the value was 210 nM.
Turning to `COCCn1ncc(-c2ccc(-c3cnc(C(=O)Nc4ccc(C(=O)N5CCC(C(=O)N6CC[N+](C)(CC(=O)O)CC6)CC5)c(Cl)c4)n3C)c(F)c2F)c1C` [Example B13, 2-[4-[1-[2-chloro-4-[[5-[2,3-difluoro-4-[1-(2-methoxyethyl)-5-methyl-pyrazol-4-yl]phenyl]-1-methyl-imidazole-2-carbonyl]amino]benzoyl]piperidine-4-carbonyl]-1-methyl-piperazin-1-ium-l-yl]acetic acid; 2,2,2-trifluoroacetate], the IC90 was found to be 810 nM.
Still for that read-out and setting: for `Cc1nn(CC(=O)Nc2ccccn2)cc1-c1ccc(-c2cnc(C(=O)Nc3ccc(C(=O)N4CCN(C(=O)C5CC[N+](C)(C)CC5)CC4)c(Cl)c3)n2C)c(F)c1F` [Example G14, N-[3-chloro-4-[4-(1,1-dimethylpiperidin-1-ium-4-carbonyl)piperazine-1-carbonyl]phenyl]-5-[2,3-difluoro-4-[3-methyl-1-[2-oxo-2-(2-pyridylamino)ethyl]pyrazol-4-yl]phenyl]-1-methyl-imidazole-2-carboxamide; formate] the value was 89 nM.
The same measure, in the same setting: with `Cc1nn(CC(=O)Nc2ccc(C(=O)N3CC[N+](C)(C)CC3)cc2)cc1-c1ccc(-c2cnc(C(=O)Nc3ccc(C(=O)N4CCN(C(=O)C5CC[N+](C)(C)CC5)CC4)c(Cl)c3)n2C)c(F)c1F` [Example G30, N-[3-chloro-4-[4-(1,1-dimethylpiperidin-1-ium-4-carbonyl)piperazine-1-carbonyl]phenyl]-5-[4-[1-[2-[4-(4,4-dimethylpiperazin-4-ium-1-carbonyl)anilino]-2-oxo-ethyl]-3-methyl-pyrazol-4-yl]-2,3-difluoro-phenyl]-1-methyl-imidazole-2-carboxamide; diformate] the figure was 1000 nM; with `COCCn1ncc(-c2ccc(-c3cnc(C(=O)Nc4ccc(C(=O)N5CCC(CN6CC[N+](C)(C)CC6=O)CC5)c(Cl)c4)n3C)c(F)c2F)c1C` [Example D14, N-[3-chloro-4-[4-[(4,4-dimethyl-2-oxo-piperazin-4-ium-1-yl)methyl]piperidine-1-carbonyl]phenyl]-5-[2,3-difluoro-4-[1-(2-methoxyethyl)-5-methyl-pyrazol-4-yl]phenyl]-1-methyl-imidazole-2-carboxamide; 2,2,2-trifluoroacetate], 110 nM; with `COCCn1nc(C)c(-c2ccc(-c3cnc(C(=O)Nc4ccc(C(=O)N5CCN(C(=O)C6CC[N+](C)(C)CC6)CC5)c(Cl)c4)n3C)c(F)c2F)c1C` [Example A2, N-[3-chloro-4-[4-(1,1-dimethylpiperidin-1-ium-4-carbonyl)piperazine-1-carbonyl]phenyl]-5-[2,3-difluoro-4-[1-(2-methoxyethyl)-3,5-dimethyl-pyrazol-4-yl]phenyl]-1-methyl-imidazole-2-carboxamide; formate], 230 nM.
Take `COCCn1cc(-c2ccc(-c3cnc(C(=O)Nc4ccc(C(=O)N5CCC(NC(=O)[C@@H]6C[C@@H](O)CN6)CC5)c(Cl)c4)n3C)c(F)c2F)c(C)n1` [Example D23, N-[3-chloro-4-[4-[[(2S,4R)-4-hydroxypyrrolidine-2-carbonyl]amino]piperidine-1-carbonyl]phenyl]-5-[2,3-difluoro-4-[1-(2-methoxyethyl)-3-methyl-pyrazol-4-yl]phenyl]-1-methyl-imidazole-2-carboxamide; formic acid]: the IC90 is 680 nM.
Same read-out and setting: for `COCCn1ncc(-c2ccc(-c3cnc(C(=O)Nc4ccc(C(=O)N5CCN(C(=O)C6CC[N+](C)(C)CC6)CC5)c(Cl)c4)n3C)c(F)n2)c1C` [Example F57, N-[3-chloro-4-[4-(1,1-dimethylpiperidin-1-ium-4-carbonyl)piperazine-1-carbonyl]phenyl]-5-[2-fluoro-6-[1-(2-methoxyethyl)-5-methyl-pyrazol-4-yl]-3-pyridyl]-1-methyl-imidazole-2-carboxamide; formate] the value was 880 nM.

The same test, now with this note: Acinetobacter baumannii, ATCC17961, 16 h, read-out: ATCC 17961 IC90.
In the case of `COCCn1nc(C)c(-c2ccc(-c3cnc(C(=O)Nc4ccc(C(=O)N5CCN(C(=O)C6CC[N+](C)(CCO)CC6)CC5)c(Cl)c4)n3C)cc2)c1C` (stereo not drawn) [Example B11, N-[3-chloro-4-[4-[1-(2-hydroxyethyl)-1-methyl-piperidin-1-ium-4-carbonyl]piperazine-1-carbonyl]phenyl]-5-[4-[1-(2-methoxyethyl)-3,5-dimethyl-pyrazol-4-yl]phenyl]-1-methyl-imidazole-2-carboxamide; formate], the IC90 amounted to 170 nM.
Still for that read-out and setting: for `COCCn1ncc(-c2ccc(-c3cnc(C(=O)Nc4ccc(C(=O)N5CCN(C(=O)C6CC[N+](C)(CCO)CC6)CC5)c(Cl)c4)n3C)c(F)c2F)c1C` (stereo not drawn) [Example B12, N-[3-chloro-4-[4-[1-(2-hydroxyethyl)-1-methyl-piperidin-1-ium-4-carbonyl]piperazine-1-carbonyl]phenyl]-5-[2,3-difluoro-4-[1-(2-methoxyethyl)-5-methyl-pyrazol-4-yl]phenyl]-1-methyl-imidazole-2-carboxamide; formate] the value was 110 nM.
Still for that read-out and setting: with `COCCn1ncc(-c2ccc(-c3cnc(C(=O)Nc4ccc(C(=O)N5CCN(C(=O)C6CCN(CCS(N)(=O)=O)CC6)CC5)c(Cl)c4)n3C)c(F)c2F)c1C` [Example B33, N-[3-chloro-4-[4-[1-(2-sulfamoylethyl)piperidine-4-carbonyl]piperazine-1-carbonyl]phenyl]-5-[2,3-difluoro-4-[1-(2-methoxyethyl)-5-methyl-pyrazol-4-yl]phenyl]-1-methyl-imidazole-2-carboxamide] the figure was 820 nM; with `COCCn1ncc(-c2ccc(-c3cnc(C(=O)Nc4ccc(C(=O)N[C@H]5[C@@H]6CN(C(=O)C7CC[N+](CC(=O)O)(CC8CNC8)CC7)C[C@@H]65)c(Cl)c4)n3C)c(F)c2F)c1C` (stereo partly drawn) [Example O2, 2-[1-(azetidin-3-ylmethyl)-4-[(1S,5R) 6-[[2-chloro-4-[[5-[2,3-difluoro-4-[1-(2-methoxyethyl)-5-methyl-pyrazol-4-yl]phenyl]-1-methyl-imidazole-2-carbonyl]amino]benzoyl]amino]-3-azabicyclo[3.1.0]hexane-3-carbonyl]piperidin-1-ium-1-yl]acetic acid formate], 362 nM.
